In patent US20100323902A1, “Live-cell signals of pathogen intrusion and methods thereof” (priority 2007, published 2010):
Like-named read-outs stand apart in the source and are kept apart here.

Experiments:
Akt = settings: 25 nM epinephrine for 1 hr vs untreated cells
Protocol: (§1) Thus, A431 cells were infected overnight in serum-free medium with various doses of Adenovirus-GFP (MOI of about 1, c, about 10, b or about 500, a). As a negative control A431 cells were treated only with serum-free medium (mock control bar “d”). At 20 hrs post infection, the infected and non-infected A431 cells were washed and then stimulated with 32 nM EGF for 30 min (FIG. 8A), 25 nM epinephrine for 1 hr (FIG. 8B), or serum-free medium for 1 hr at ambient room temperature (column e in FIGS. 8A and 8B, cell non infected and untreated). Cells extracts were then prepared according to the recommended protocol and analyzed using Mercator™ phosphoarray assay. […] The letter labeled bars (a-e) represent: a=EFG/−adenovirus MOI 500, b=EFG/adenovirus MOI 10, c=EFG/adenovirus MOI 1, d=EFG-mock, and e=untreated cells. […] The letter labeled bars (a-e) are as above for FIG. 8A.

FAK = assay: Mercator Phosphoarray assay in non-infected A431 cells, FAK; format: cell-based, Human
Protocol: as §1

Paxillin = assay: Mercator Phosphoarray assay in non-infected A431 cells, Paxillin; format: cell-based, Human
Protocol: as §1

A431 cells = assay: Marker-induced DMR signal in A431 cells (RWG biosensor); format: cell-based, Human
Protocol: Cell Culture—Human epidermoid carcinoma A431 cells were obtained from American Type Cell Culture. For A431 cell culturing, A431 cells were grown in Dulbecco's modified Eagle's medium (DMEM) supplemented with 10% fetal bovine serum (FBS), 4.5 g/liter glucose, 2 mM glutamine, and antibiotics. about 1-2×10^4 cells at passage 3 to 5 suspended in 50 μl the growth medium were placed in each well. After cell seeding, the cells were cultured at 37° C. under air/5% CO2 until about 95% confluency was reached (about 2 days). Afterwards, the serum medium was replaced with the serum-free DMEM medium, and at the same time adenovirus particles were introduced. The resultant cells were subject to continuous culturing for overnight. […]
The doses of virus (multiplicity of infection (MOI)) used in this experiment were comprised of from 0 to about MOI 6,000. At 20 hrs post infection (PI) the A431 cells were washed with HBSS and real time kinetics of the cell responses were recorded before and after stimulation with 32 nM EGF (targeting EGFR and MAPK pathway and cell adhesion pathway), 25 nM epinephrine (targeting Gs pathway and cell adhesion pathway), 32 nM of bradykinin (targeting Gq and Gs pathway), 25 microM of SFFLR-amide or 25 microM of SLIGKV-amide (both targeting Gq and G12/13 pathways) using the Epic® system and illustrated in FIGS. 5 to 7. […]

EGFR = assay: Mercator Phosphoarray assay in non-infected A431 cells, EGFR; format: cell-based, Human
Protocol: as §1

adenovirus [1] = assay: RWG biosensor DMR assay: modulation of the adenovirus-induced response in HeLa cells; format: cell-based; settings: HeLa cells pretreated 1 h with modulator (10 microM latrunculin A, 10 microM cytochalasin B, 40 microM DIPC), then adenovirus MOI 6,000; assay time about 1 hour
From the text: Reagents—Latrunculin A and cytochalasin B were purchased from Sigma Chemical Co. (St. Louis, Mo.). Cell permeable dynamin inhibitor peptide control (DIPC) was obtained from Tocris Chemical Co. (St. Louis, Mo.). Adenoviral particles (Ad-CMV-eGFP) were purchased from Vector Biolabs (Philadelphia, Pa.). Cell-culture-ready Corning® Epic™ 96well biosensor microplates were obtained from Corning Inc (Corning, N.Y.). HeLa cell line was obtained from Americal Type Cell Culture.
Cell Culture—HeLa cells were grown in Earle minimum Essential medium (EMEM) supplemented with 10% fetal bovine serum (FBS), 4.5 g/liter glucose, 2 mM glutamine, and antibiotics. ˜10^4 HeLa cells suspended in 200 μl the appropriate medium containing 10% FBS were placed in each well of a 96well biosensor microplate, and were cultured at 37° C. under air/5% CO2 until about 95% confluency was reached.
Optical biosensor measurements—Corning® Epic® angular interrogation system with transverse magnetic or p-polarized TM0 mode (as described in, for example, U.S. Patent Publication No. US-2004-0263841, U.S. patent application Ser. No. 11/019,439, filed Dec. 21, 2004, and U.S. Patent Publication No. US-2005-0236554.) was used. […] Afterwards, the sensor microplate containing cells was placed into the optical system, and the cell responses were recorded before and after addition of a solution. […]

adenovirus [2] = settings: cited from earlier work
[3] = 25 nM epinephrine for 1 hr vs untreated cells
[4] = 32 nM EGF for 30 min vs untreated cells

CNC[C@H](O)c1ccc(O)c(O)c1 [epinephrine, Epinephrine]
phosphorylation level of Akt (Akt): do not seem to be altered | phosphorylation level of FAK (FAK; [3]): do not seem to be altered | phosphorylation level of paxillin (Paxillin; [3]): decreases | DMR signal upon stimulation (A431 cells): dose-dependent DMR signal | phosphorylation level of EGFR (EGFR; [3]): do not seem to be altered

C/C1=C/C(=O)O[C@@H]2C[C@@H](CC[C@H](C)/C=C\C=C\CC1)O[C@@](O)([C@@H]1CSC(=O)N1)C2 [latrunculin A, Latrunculin A]
adenovirus-induced P-DMR signal (adenovirus [1]): clearly inhibited the P-DMR signal

C=C1[C@@H](C)[C@H]2[C@H](Cc3ccccc3)NC(=O)[C@]23OC(=O)/C=C/[C@H](O)CCC[C@@H](C)C/C=C/[C@H]3[C@@H]1O [cytochalasin B]
adenovirus-induced P-DMR signal (adenovirus [1]): clearly inhibited the P-DMR signal | trafficking of adenovirus in cells (adenovirus [2]): block the trafficking of adenovirus

CC[C@]1(O)C[C@@H]2CN(CCc3c([nH]c4ccccc34)[C@@](C(=O)OC)(c3cc4c(cc3OC)N(C)[C@H]3[C@@](O)(C(=O)OC)[C@H](OC(C)=O)[C@]5(CC)C=CCN6CC[C@]43[C@@H]65)C2)C1 [vinblastin]
trafficking of adenovirus in cells (adenovirus [2]): block the trafficking of adenovirus

EGF: natural ligand of epidermal growth factor receptor (NSDSECPLSHDGYCLHDGVCMYIEALDKYACNCVVGYIGERCQYRDLKWWELR; Epidermal growth factor; UniProt P01133 971-1023, looked up)
phosphorylation level of FAK (FAK; [4]): increased significantly | phosphorylation level of paxillin (Paxillin; [4]): only mildly increased | DMR signal upon stimulation (A431 cells; A431 cells, quiescent for EGF, bradykinin, ATP and thrombin): DMR signal with three distinct and sequential phases | phosphorylation level of EGFR (EGFR; [4]): increased significantly
